Where a name gives a salt, the structure may show the parent alone. Read-outs that look alike come from different tables or passages of the source.
How the values were obtained:
rat Nav1.7 = rat Nav1.7 (Rattus norvegicus, UniProt O08562); assay: PatchXpress automated electrophysiology on rat Nav1.7; format: cell-based; details: 20%-inactivated rat Nav1.7
[1] = In vitro plasma protein binding; format: in vitro ADME
[2] = test system: rat formalin model of pain; assay: Formalin test (formalin-induced flinching); format: in vivo; details: for Decrease in formalin flinching: phase 2 (10 to 40 min), percent of vehicle; for Reduction in formalin flinching, result in words: rat formalin test
Experimental: Formalin-induced flinching was measured using the Automated Nociception Analyzer (ANA) (University Anesthesia Research & Development Group, La Jolla, CA). Rats were habituated to the ANA testing chambers for at least 30 minutes prior to the formalin injection. At test time, each rat was removed from the testing chamber and gently wrapped in a towel. 50 μL of 2.5% formalin solution was injected into the dorsal surface of the left hind paw with a 30 gauge needle. A small metal band was then affixed to the plantar side of the injected paw with one drop of super glue. The animal was then unwrapped from the towel, placed back in the testing chamber, and flinching behavior was scored for 40 minutes by the ANA software. While minimized, non-painful paw movement from the natural activity of an alert animal could be erroneously binned by the automated recording system as a nociceptive behavior. These behaviors are not subtracted from the flinching total. […] Total flinching behavior was used as the endpoint of the assay.

hNav1.7 = biological target: T1, hNav1.7 (Homo sapiens, UniProt Q15858); assay: Manual whole cell patch clamp electrophysiology on HEK 293 cells stably expressing hNav1.7; format: cell-based
T1 construct: expressed in transfected cells; host or cells: HEK 293
Experimental: Except as indicated, recordings to determine potency of aminotriazines on Nav1.7 were made with manual electrophysiology. HEK 293 cells stably expressing hNav1.7 were voltage-clamped using the whole cell patch clamp configuration. Cells were plated onto 35 mm culture dishes 0–24 hours before recording, and tissue culture medium was exchanged for external solution containing (in mM) 140 NaCl, 5 KCl, 2 CaCl2, 1 MgCl2, 10 HEPES, 11 glucose, pH 7.4 with NaOH. Patch pipettes were pulled from borosilicate glass capillaries (1.2 mm outer diameter, World Precision Instruments, Sarasota, FL) with a P-97 pipette puller (Sutter Instruments, Novato, CA) and backfilled with internal solution containing (in mM) 62.5 CsCl, 75 CsF, 2.5 MgCl2, 5 EGTA, 10 HEPES, pH 7.25 with CsOH. Pipette resistances were between 1.5 and 2.0 MΩ. After formation of the whole-cell configuration, cells were lifted off the dish bottom with the patch pipette and positioned directly in front of a microarray of glass tubes (each tube internal diameter ~ 1 mm) with each tube containing continuously flowing control or test solution. A full current-voltage relation was recorded from each cell, and cells with poor space clamp as indicated by discontinuous I-V relation or by prolonged or nonexponential current kinetics were discarded. Solution switching was accomplished by moving the microarray with computer control via an RSC-160 rapid solution exchanger (Bio-Logic, Claix, France). Currents were recorded with an Axopatch 200B patch-clamp amplifier driven by pCLAMP software, filtered (4-pole Bessel) at 5 kHz during acquisition, and digitized at 20 kHz using pClamp9.2. Whole cell capacitance and series resistance were compensated at 0%- 80%, and reported voltages were uncorrected for liquid junction potentials. Recordings were made at room temperature. Concentration-response curves were taken by measuring inward Nav1.7 current every five to six seconds with a 10 ms to 20 ms depolarization to near the peak of the current-voltage relation, before and after steady-state inhibition by a given concentration of aminotriazine. For concentration response curves on partially inactivated channels, holding voltage was set to produce 20% fractional inactivation. […] Occasionally two compound concentrations were tested in parallel without resetting the voltage, if inhibition was rapid and the current level steady. […] Concentration response curves on non-inactivated channels generally were taken with multiple concentrations added in series without washoff of the previous concentration.

naïve rats = assay: Open field activity (basic movement); format: in vivo, rat; details: formalin-naïve rats
Experimental: Basic movement was measured using the Photobeam Activity System Open Field (San Diego Instruments, San Diego, CA) equipped with 48 infrared photocell emitters and detectors. Photobeams used to measure vertical movement were positioned 14 cm above the test chamber floor. Each testing chamber was made of Plexiglas (41 x 41 x 36 cm) and was devoid of any bedding. At the beginning of the test session, each animal was placed in a separate testing chamber and the room lights were turned off. Basic movement was measured for 30 minutes.

[3] = Terminal plasma and brain concentrations after behavioral testing; format: in vivo, rat
[4] = test system: rat spinal nerve ligation model; assay: Tactile allodynia following spinal nerve ligation (SNL); format: in vivo; details: gabapentin positive control, 75 min after dosing; statistically significant
From the text: A decrease in tactile response threshold, using calibrated von Frey filaments (Stoelting Co., Wood Dale, IL), was used as a measure of tactile allodynia following spinal nerve ligation (SNL). Prior to surgery, each animal underwent baseline testing to determine suitability for the assay. Briefly, animals were placed on a raised platform with a grid meshed floor. The distance between the mesh was ¼”. Once acclimated, each animal received a series of trials according to the up-down method described by Dixon. Animals showing a response to less than 4 g were deemed already sensitive to the stimulus and were removed. A maximal fiber of 15 g was employed as a cut-off threshold. Surgery was then performed with a procedure slightly modified by that reported by Kim and Chung. Briefly, the left L5 spinal nerve was carefully isolated from the surrounding tissue. Using 5–0 silk suture, a tight ligature was placed around L5 nerve. Muscle and skin were then closed using 4–0 absorbable suture and wound clips. Animals were allowed to recover and were carefully monitored for seven days to ensure proper healing and ensure there was no mutilation of the affected limb. On day 21 post-surgery, animals were again tested to ensure the development of tactile allodynia. […] Animals were then randomized into groups and dosed with the test compound, gabapentin, or vehicle and assessed as stated above. […]

rat CFA model of pain = assay: CFA-induced thermal hyperalgesia; format: in vivo; details: morphine s.c., 30 min after dosing, positive control
Experimental: CFA-induced thermal hyperalgesia was measured using the Thermal Plantar Analgesia Instrument (Ugo Basile, Italy). Intensity of the radiant heat stimulus was adjusted to achieve a withdrawal latency of approximately 13 s in naïve animals. On test day one, animals were placed on the apparatus in their individual testing chambers with an absorbent towel at the bottom and allowed to habituate for at least 30 minutes. The towel was then removed and animals were allowed to acclimate for at least 15 minutes more. After habituation, animals were placed back in their home cages until the following day. On test day two, animals were placed back in the testing chambers until calm (typically 20 minutes). The thermal device was positioned on the center of the left hind paw and the test was started. The time for the animal to withdraw its paw from the thermal stimulus was recorded. A cut-off of 30 seconds was used to prevent tissue damage. Few trials went past 20 seconds and none past 25 seconds. This procedure was repeated for three trials per animal, each separated by at least 5 min, and trials were averaged to determine baseline withdrawal latencies. After determining baseline measures, each animal received an injection of 50 μl CFA (1:1 emulsion with PBS, Sigma, St. Louis, MO) into the plantar side of the left hind paw with a 26 gauge needle. Animals were then placed back in their home cages until the following day. Approximately 24 h after the CFA injection, withdrawal latencies to heat were determined as described above. Animals were then randomized based on their Post-CFA baseline score and treated with the test compound or vehicle. […] The experimenter was blinded to drug treatment during this assay. Percent return to baseline latency was used as the endpoint of the assay.

T1 sequence (Q15858 whole entry): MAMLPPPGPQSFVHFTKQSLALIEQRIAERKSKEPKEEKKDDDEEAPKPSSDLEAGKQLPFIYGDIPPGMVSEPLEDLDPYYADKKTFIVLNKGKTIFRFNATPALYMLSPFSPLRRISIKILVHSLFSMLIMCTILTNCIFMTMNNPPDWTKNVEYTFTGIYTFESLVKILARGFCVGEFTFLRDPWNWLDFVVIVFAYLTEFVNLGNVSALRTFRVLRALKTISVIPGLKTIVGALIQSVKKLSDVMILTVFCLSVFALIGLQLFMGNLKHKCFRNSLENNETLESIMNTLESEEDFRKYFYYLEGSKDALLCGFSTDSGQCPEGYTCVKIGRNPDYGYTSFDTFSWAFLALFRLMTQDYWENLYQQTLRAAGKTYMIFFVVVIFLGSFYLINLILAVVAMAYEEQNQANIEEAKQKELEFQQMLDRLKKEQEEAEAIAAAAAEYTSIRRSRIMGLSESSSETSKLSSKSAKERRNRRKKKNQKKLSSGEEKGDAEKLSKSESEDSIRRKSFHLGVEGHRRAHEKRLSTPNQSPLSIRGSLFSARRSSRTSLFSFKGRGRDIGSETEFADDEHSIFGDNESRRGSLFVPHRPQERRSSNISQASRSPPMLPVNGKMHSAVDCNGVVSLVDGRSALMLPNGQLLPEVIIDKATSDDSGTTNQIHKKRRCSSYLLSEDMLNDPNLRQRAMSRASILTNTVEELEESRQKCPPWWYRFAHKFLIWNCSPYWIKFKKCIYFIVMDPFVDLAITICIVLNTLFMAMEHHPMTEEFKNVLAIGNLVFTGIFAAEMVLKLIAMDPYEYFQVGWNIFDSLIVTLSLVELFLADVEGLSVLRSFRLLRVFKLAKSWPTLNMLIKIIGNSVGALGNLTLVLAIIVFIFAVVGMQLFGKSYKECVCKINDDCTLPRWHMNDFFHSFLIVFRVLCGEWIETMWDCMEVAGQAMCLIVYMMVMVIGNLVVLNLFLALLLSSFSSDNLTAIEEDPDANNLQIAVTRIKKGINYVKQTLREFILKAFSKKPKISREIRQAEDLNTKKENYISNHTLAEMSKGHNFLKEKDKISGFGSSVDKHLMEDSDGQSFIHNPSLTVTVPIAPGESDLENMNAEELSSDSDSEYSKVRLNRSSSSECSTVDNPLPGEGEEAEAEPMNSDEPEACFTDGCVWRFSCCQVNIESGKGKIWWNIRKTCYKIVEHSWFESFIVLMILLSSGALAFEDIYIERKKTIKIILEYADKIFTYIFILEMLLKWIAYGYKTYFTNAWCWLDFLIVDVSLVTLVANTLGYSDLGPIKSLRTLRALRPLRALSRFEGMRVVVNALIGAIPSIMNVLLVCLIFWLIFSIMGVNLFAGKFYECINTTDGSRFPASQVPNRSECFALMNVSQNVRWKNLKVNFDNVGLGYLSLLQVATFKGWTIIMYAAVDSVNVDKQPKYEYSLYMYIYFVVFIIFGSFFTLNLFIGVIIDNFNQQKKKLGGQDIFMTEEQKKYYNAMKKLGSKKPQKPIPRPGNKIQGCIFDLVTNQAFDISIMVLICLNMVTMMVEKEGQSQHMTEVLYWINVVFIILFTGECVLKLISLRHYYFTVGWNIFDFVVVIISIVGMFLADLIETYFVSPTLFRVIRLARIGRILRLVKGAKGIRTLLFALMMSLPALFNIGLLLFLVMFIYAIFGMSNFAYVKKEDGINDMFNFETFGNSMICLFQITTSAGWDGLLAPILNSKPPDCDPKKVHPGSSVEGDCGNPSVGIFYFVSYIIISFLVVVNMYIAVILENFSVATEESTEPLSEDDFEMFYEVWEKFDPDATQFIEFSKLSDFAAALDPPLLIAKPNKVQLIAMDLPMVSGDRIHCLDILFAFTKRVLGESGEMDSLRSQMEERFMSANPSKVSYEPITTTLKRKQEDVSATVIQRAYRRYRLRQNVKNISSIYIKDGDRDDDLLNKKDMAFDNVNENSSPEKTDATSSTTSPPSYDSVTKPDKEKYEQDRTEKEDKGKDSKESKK
rat Nav1.7, sequence (O08562 whole entry): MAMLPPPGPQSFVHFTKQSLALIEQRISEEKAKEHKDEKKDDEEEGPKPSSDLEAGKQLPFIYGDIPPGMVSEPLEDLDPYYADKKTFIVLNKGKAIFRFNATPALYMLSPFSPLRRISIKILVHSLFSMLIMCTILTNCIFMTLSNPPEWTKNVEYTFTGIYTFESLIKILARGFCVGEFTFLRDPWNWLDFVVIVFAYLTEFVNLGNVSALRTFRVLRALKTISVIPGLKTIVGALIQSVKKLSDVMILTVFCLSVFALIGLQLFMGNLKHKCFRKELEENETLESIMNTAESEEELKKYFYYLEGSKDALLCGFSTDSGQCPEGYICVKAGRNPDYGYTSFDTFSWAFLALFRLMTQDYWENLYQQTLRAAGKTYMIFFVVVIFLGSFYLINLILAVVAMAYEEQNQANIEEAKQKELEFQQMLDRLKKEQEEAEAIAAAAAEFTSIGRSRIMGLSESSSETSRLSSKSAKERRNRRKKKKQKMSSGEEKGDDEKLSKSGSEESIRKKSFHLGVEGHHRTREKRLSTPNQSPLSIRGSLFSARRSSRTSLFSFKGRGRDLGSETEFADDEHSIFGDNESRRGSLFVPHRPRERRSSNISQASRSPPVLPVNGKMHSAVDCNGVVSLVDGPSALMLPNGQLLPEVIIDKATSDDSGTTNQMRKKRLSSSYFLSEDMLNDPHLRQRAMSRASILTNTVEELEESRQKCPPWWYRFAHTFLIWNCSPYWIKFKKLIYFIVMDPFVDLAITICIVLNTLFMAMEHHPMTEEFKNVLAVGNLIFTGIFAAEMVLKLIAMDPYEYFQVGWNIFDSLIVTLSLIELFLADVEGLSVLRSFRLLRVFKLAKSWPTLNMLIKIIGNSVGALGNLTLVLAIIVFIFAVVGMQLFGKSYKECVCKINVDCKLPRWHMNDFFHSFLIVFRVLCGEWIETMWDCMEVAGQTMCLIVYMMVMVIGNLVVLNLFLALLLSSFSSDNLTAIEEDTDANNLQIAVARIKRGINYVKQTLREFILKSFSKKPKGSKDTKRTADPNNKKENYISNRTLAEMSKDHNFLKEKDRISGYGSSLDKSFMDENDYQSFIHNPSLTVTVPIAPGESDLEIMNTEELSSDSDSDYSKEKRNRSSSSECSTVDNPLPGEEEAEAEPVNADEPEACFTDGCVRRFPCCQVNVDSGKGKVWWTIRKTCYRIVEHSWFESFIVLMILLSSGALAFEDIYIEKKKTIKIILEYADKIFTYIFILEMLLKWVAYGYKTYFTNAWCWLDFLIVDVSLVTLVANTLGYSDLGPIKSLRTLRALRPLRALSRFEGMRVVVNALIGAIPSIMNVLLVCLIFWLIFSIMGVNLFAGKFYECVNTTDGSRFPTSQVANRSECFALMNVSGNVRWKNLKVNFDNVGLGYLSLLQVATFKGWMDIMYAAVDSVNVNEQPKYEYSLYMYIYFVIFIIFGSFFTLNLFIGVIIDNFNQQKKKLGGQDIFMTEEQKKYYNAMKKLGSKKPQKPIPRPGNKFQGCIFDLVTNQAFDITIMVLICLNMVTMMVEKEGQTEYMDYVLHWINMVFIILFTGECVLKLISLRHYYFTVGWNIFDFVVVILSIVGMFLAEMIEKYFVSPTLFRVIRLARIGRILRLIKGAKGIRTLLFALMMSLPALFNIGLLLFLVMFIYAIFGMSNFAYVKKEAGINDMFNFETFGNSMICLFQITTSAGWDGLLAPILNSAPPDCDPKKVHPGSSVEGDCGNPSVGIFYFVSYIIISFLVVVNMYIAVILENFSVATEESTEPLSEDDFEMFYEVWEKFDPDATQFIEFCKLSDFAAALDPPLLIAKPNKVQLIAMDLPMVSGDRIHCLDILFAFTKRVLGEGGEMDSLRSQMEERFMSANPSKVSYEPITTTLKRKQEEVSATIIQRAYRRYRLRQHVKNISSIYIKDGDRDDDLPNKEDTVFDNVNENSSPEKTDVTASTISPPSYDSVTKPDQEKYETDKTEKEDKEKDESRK

| SMILES | IC50 (rat Nav1.7) [nM] | fraction unbound [1] | Decrease in formalin flinching ([2]; 10 mg/kg p.o.) [%] | Decrease in formalin flinching ([2]; 30 mg/kg p.o.) [%] | Decrease in formalin flinching ([2]; 100 mg/kg p.o.) [%] | Analgesic efficacy ([2]; rat formalin model, significant (p < 0.05) decrease in flinching at a dose without a reduction in open field movement that obviated the result) | Reduction in formalin flinching, result in words [2] | IC50 (hNav1.7; IC50 (μM) 20%-inactivated, 20%-inactivated human Nav1.7, holding voltage set to produce 20% fractional inactivation) [µM] | IC50 (hNav1.7; non-inactivated human Nav1.7, holding voltage -140 mV or occasionally -120 mV, peak concentration tested 10 μM, read-out: IC50 (μM) Non-inactivated) [µM] | Decrease in basic movement (naïve rats; 10 mg/kg p.o., negative value = increase) [%] | Decrease in basic movement (naïve rats; 30 mg/kg p.o.) [%] | Decrease in basic movement (naïve rats; 100 mg/kg p.o.) [%] | Kp ([3]; brain and plasma, rat, ratio of concentrations measured following the formalin test) | Effective [plasma] ([3]; mean terminal plasma concentration at the lowest effective dose in the rat formalin test) [µM] | Reversal of tactile allodynia compared to the vehicle group [4] [%] | Average reversal of thermal hyperalgesia compared to baseline (rat CFA model of pain) [%] | Total reduction in phase 2 flinching as percent of vehicle ([2]; morphine 2 mg/kg s.c., positive control) [%] |
| --- | --- | --- | --- | --- | --- | --- | --- | --- | --- | --- | --- | --- | --- | --- | --- | --- | --- |
| CC(=O)Nc1cccc(Nc2ncnc(N3CCc4cc(OC(F)(F)F)ccc4C3)n2)c1 [Compound F, N-(3-((4-(6-(trifluoromethoxy)-3,4-dihydro-2(1H)-isoquinolinyl)-1,3,5-triazin-2-yl)amino)phenyl)acetamide] | 1000 | 0.001 | 0 | 35 | 67 | Yes | statistically significant and plasma concentration-dependent reduction in formalin flinching | 0.18 | > 10 | 11 | 33 | 54 | 0.33 | 3.70 | – | – | – |
| NCC1(CC(=O)O)CCCCC1 [gabapentin, reference compound] | – | – | – | – | – | – | – | – | – | – | – | – | – | – | 44 | – | – |
| CN1CC[C@]23c4c5ccc(O)c4O[C@H]2[C@@H](O)C=C[C@H]3[C@H]1C5 [morphine, Morphine sulfate, reference compound] | – | – | – | – | – | – | statistically significant decrease in flinching compared to the vehicle group | – | – | – | – | – | – | – | – | 87 | 68 |
